Reference: PubChem BioAssay (NCI)
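Each compound was tested at five concentrations against cells in 96-well plates for 48 hours. Here, GI50 denotes the concentration required for 50% inhibition of growth. TGI: total growth inhibition.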

Key:
Test in all cases: inhibition of tumour cell growth, NCI panel, 48 h
786-0 renal = test system: 786-0 renal
A498 renal = test system: A498 renal
A549 NSCLC = test system: A549 NSCLC
ACHN renal = test system: ACHN renal
BT-549 breast = test system: BT-549 breast
CAKI-1 renal = test system: CAKI-1 renal
CCRF-CEM leukemia = test system: CCRF-CEM leukemia
DU-145 prostate = test system: DU-145 prostate
EKVX NSCLC = test system: EKVX NSCLC
HCC-2998 colon = test system: HCC-2998 colon
HCT-116 colon = test system: HCT-116 colon
HCT-15 colon = test system: HCT-15 colon
HL-60(TB) leukemia = test system: HL-60(TB) leukemia
HOP-62 NSCLC = test system: HOP-62 NSCLC
HOP-92 NSCLC = test system: HOP-92 NSCLC
HS 578T breast = test system: HS 578T breast
HT29 colon = test system: HT29 colon
IGROV1 ovarian = test system: IGROV1 ovarian
K-562 leukemia = test system: K-562 leukemia
KM12 colon = test system: KM12 colon
LOX IMVI melanoma = test system: LOX IMVI melanoma
M14 melanoma = test system: M14 melanoma
MALME-3M melanoma = test system: MALME-3M melanoma
MCF7 breast = test system: MCF7 breast
MDA-MB-231 breast = test system: MDA-MB-231 breast
MDA-MB-435 = test system: MDA-MB-435
MOLT-4 leukemia = test system: MOLT-4 leukemia
NCI-H23 lung = test system: NCI-H23 lung
NCI-H460 lung = test system: NCI-H460 lung
NCI-H522 lung = test system: NCI-H522 lung
NCI/ADR-RES ovarian = test system: NCI/ADR-RES ovarian
OVCAR-3 ovarian = test system: OVCAR-3 ovarian
OVCAR-4 ovarian = test system: OVCAR-4 ovarian
OVCAR-5 ovarian = test system: OVCAR-5 ovarian
OVCAR-8 ovarian = test system: OVCAR-8 ovarian
PC-3 prostate = test system: PC-3 prostate
RPMI-8226 leukemia = test system: RPMI-8226 leukemia
RXF 393 renal = test system: RXF 393 renal
SF-268 CNS = test system: SF-268 CNS
SF-295 CNS = test system: SF-295 CNS
SF-539 CNS = test system: SF-539 CNS
SK-MEL-2 melanoma = test system: SK-MEL-2 melanoma
SK-MEL-28 melanoma = test system: SK-MEL-28 melanoma
SK-MEL-5 melanoma = test system: SK-MEL-5 melanoma
SN12C renal = test system: SN12C renal
SNB-19 CNS = test system: SNB-19 CNS
SNB-75 CNS = test system: SNB-75 CNS
SR leukemia = test system: SR leukemia
SW-620 colon = test system: SW-620 colon
T-47D breast = test system: T-47D breast
TK-10 renal = test system: TK-10 renal
UACC-257 melanoma = test system: UACC-257 melanoma
UACC-62 melanoma = test system: UACC-62 melanoma
UO-31 renal = test system: UO-31 renal
COLO 205 colon = test system: COLO 205 colon
NCI-H226 lung = test system: NCI-H226 lung
SK-OV-3 ovarian = test system: SK-OV-3 ovarian
U251 CNS = test system: U251 CNS

## O=C(Nc1ccc(Cl)cc1)Nc1ccccc1CNc1nc(Nc2ccc(OCCN3CCCC3)cc2)ncc1Cl
786-0 renal
  GI50: 0.871 µM
  TGI: 1.61 µM
A498 renal
  GI50: 5.22 µM
  TGI: 12.3 µM
A549 NSCLC
  GI50: 1.49 µM
  TGI: 4.49 µM
ACHN renal
  GI50: 0.929 µM
  TGI: 1.78 µM
BT-549 breast
  GI50: 5.87 µM
  TGI: 12.6 µM
CAKI-1 renal
  GI50: 7.44 µM
  TGI: 14 µM
CCRF-CEM leukemia
  GI50: 1.32 µM
  TGI: 3.43 µM
DU-145 prostate
  GI50: 1.22 µM
  TGI: 2.79 µM
EKVX NSCLC
  GI50: 1.55 µM
  TGI: 6.63 µM
HCC-2998 colon
  GI50: 1.22 µM
  TGI: 3.38 µM
HCT-116 colon
  GI50: 0.927 µM
  TGI: 1.85 µM
HCT-15 colon
  GI50: 1.01 µM
  TGI: 2.6 µM
HL-60(TB) leukemia
  GI50: 1.05 µM
  TGI: 2.19 µM
HOP-62 NSCLC
  GI50: 1.28 µM
  TGI: 3.88 µM
HOP-92 NSCLC
  GI50: 0.985 µM
  TGI: 2.77 µM
HS 578T breast
  GI50: 7.02 µM
  TGI: 19 µM
HT29 colon
  GI50: 1.19 µM
  TGI: 3.28 µM
IGROV1 ovarian
  GI50: 1.62 µM
  TGI: 5.72 µM
K-562 leukemia
  GI50: 1.16 µM
  TGI: 2.82 µM
KM12 colon
  GI50: 1.04 µM
  TGI: 2.2 µM
LOX IMVI melanoma
  GI50: 0.901 µM
  TGI: 1.64 µM
M14 melanoma
  GI50: 0.832 µM
  TGI: 1.68 µM
MALME-3M melanoma
  GI50: 0.828 µM
  TGI: 1.59 µM
MCF7 breast
  GI50: 0.895 µM
  TGI: 1.84 µM
MDA-MB-231 breast
  GI50: 0.888 µM
  TGI: 1.84 µM
MDA-MB-435
  GI50: 0.935 µM
  TGI: 1.93 µM
MOLT-4 leukemia
  GI50: 1.19 µM
  TGI: 2.99 µM
NCI-H23 lung
  GI50: 2.53 µM
  TGI: 10 µM
NCI-H460 lung
  GI50: 0.936 µM
  TGI: 1.78 µM
NCI-H522 lung
  GI50: 1.18 µM
  TGI: 2.94 µM
NCI/ADR-RES ovarian
  GI50: 1.16 µM
  TGI: 2.64 µM
OVCAR-3 ovarian
  GI50: 0.935 µM
  TGI: 1.71 µM
OVCAR-4 ovarian
  GI50: 0.862 µM
  TGI: 1.66 µM
OVCAR-5 ovarian
  GI50: 1.1 µM
  TGI: 2.7 µM
OVCAR-8 ovarian
  GI50: 1.25 µM
  TGI: 3.31 µM
PC-3 prostate
  GI50: 1.07 µM
  TGI: 2.35 µM
RPMI-8226 leukemia
  GI50: 1.24 µM
  TGI: 3.19 µM
RXF 393 renal
  GI50: 0.898 µM
  TGI: 1.76 µM
SF-268 CNS
  GI50: 1.29 µM
  TGI: 4.04 µM
SF-295 CNS
  GI50: 7.65 µM
  TGI: 14.6 µM
SF-539 CNS
  GI50: 0.863 µM
  TGI: 1.61 µM
SK-MEL-2 melanoma
  GI50: 8.99 µM
  TGI: 17.4 µM
SK-MEL-28 melanoma
  GI50: 0.855 µM
  TGI: 1.58 µM
SK-MEL-5 melanoma
  GI50: 0.845 µM
  TGI: 1.53 µM
SN12C renal
  GI50: 0.913 µM
  TGI: 1.74 µM
SNB-19 CNS
  GI50: 2.5 µM
  TGI: 11.6 µM
SNB-75 CNS
  GI50: 2.1 µM
  TGI: 9.28 µM
SR leukemia
  GI50: 1.7 µM
  TGI: 50 µM
SW-620 colon
  GI50: 1.12 µM
  TGI: 2.67 µM
T-47D breast
  GI50: 6.47 µM
  TGI: 18 µM
TK-10 renal
  GI50: 0.982 µM
  TGI: 1.91 µM
UACC-257 melanoma
  GI50: 0.993 µM
  TGI: 2 µM
UACC-62 melanoma
  GI50: 0.903 µM
  TGI: 1.78 µM
UO-31 renal
  GI50: 0.782 µM
  TGI: 1.59 µM

## CCOCNc1ccc(N2C(=O)/C(=C/c3ccc(N(CC)CC)cc3)N=C2c2ccccc2)cc1
786-0 renal
  GI50: 5.64 µM
  TGI: 22.9 µM
A498 renal
  GI50: 35.4 µM
  TGI: > 100 µM
A549 NSCLC
  GI50: 11.4 µM
  TGI: > 100 µM
ACHN renal
  GI50: 17.5 µM
  TGI: > 100 µM
BT-549 breast
  GI50: 33.5 µM
  TGI: > 100 µM
CAKI-1 renal
  GI50: 12.5 µM
  TGI: 56.8 µM
CCRF-CEM leukemia
  GI50: 3.55 µM
  TGI: > 100 µM
COLO 205 colon
  GI50: 86.6 µM
  TGI: > 100 µM
DU-145 prostate
  GI50: > 100 µM
  TGI: > 100 µM
EKVX NSCLC
  GI50: > 100 µM
  TGI: > 100 µM
HCC-2998 colon
  GI50: > 100 µM
  TGI: > 100 µM
HCT-116 colon
  GI50: 2.4 µM
  TGI: 53.4 µM
HCT-15 colon
  GI50: 1.06 µM
  TGI: > 100 µM
HL-60(TB) leukemia
  GI50: 25 µM
  TGI: > 100 µM
HOP-62 NSCLC
  GI50: 12.6 µM
  TGI: 35.3 µM
HOP-92 NSCLC
  GI50: 2.25 µM
  TGI: 12 µM
HS 578T breast
  GI50: 17 µM
  TGI: > 100 µM
HT29 colon
  GI50: 6.88 µM
  TGI: > 100 µM
K-562 leukemia
  GI50: 2.87 µM
  TGI: > 100 µM
KM12 colon
  GI50: 5.44 µM
  TGI: > 100 µM
LOX IMVI melanoma
  GI50: 2.48 µM
  TGI: > 100 µM
M14 melanoma
  GI50: > 100 µM
  TGI: > 100 µM
MALME-3M melanoma
  GI50: 24.8 µM
  TGI: > 100 µM
MCF7 breast
  GI50: 36.5 µM
  TGI: > 100 µM
MDA-MB-231 breast
  GI50: 13 µM
  TGI: 49.3 µM
MDA-MB-435
  GI50: 69.1 µM
  TGI: > 100 µM
MOLT-4 leukemia
  GI50: 4.57 µM
  TGI: > 100 µM
NCI-H226 lung
  GI50: 8.24 µM
  TGI: > 100 µM
NCI-H23 lung
  GI50: 27.3 µM
  TGI: > 100 µM
NCI-H460 lung
  GI50: 2.86 µM
  TGI: > 100 µM
NCI/ADR-RES ovarian
  GI50: 33.9 µM
  TGI: > 100 µM
OVCAR-3 ovarian
  GI50: 28.3 µM
  TGI: > 100 µM
OVCAR-4 ovarian
  GI50: > 100 µM
  TGI: > 100 µM
OVCAR-5 ovarian
  GI50: > 100 µM
  TGI: > 100 µM
OVCAR-8 ovarian
  GI50: 10.8 µM
  TGI: > 100 µM
PC-3 prostate
  GI50: 5.83 µM
  TGI: > 100 µM
RPMI-8226 leukemia
  GI50: 2.83 µM
  TGI: > 100 µM
RXF 393 renal
  GI50: 4.23 µM
  TGI: 17.4 µM
SF-268 CNS
  GI50: 7.73 µM
  TGI: > 100 µM
SF-295 CNS
  GI50: 9.8 µM
  TGI: > 100 µM
SF-539 CNS
  GI50: 4.87 µM
  TGI: 26.7 µM
SK-MEL-2 melanoma
  GI50: 13.7 µM
  TGI: 31 µM
SK-MEL-28 melanoma
  GI50: > 100 µM
  TGI: > 100 µM
SK-MEL-5 melanoma
  GI50: 22.9 µM
  TGI: > 100 µM
SK-OV-3 ovarian
  GI50: 26.1 µM
  TGI: 82.9 µM
SN12C renal
  GI50: 16.6 µM
  TGI: > 100 µM
SNB-19 CNS
  GI50: 7.57 µM
  TGI: 55.3 µM
SNB-75 CNS
  GI50: 16.2 µM
  TGI: 81.2 µM
SR leukemia
  GI50: 6.5 µM
  TGI: > 100 µM
SW-620 colon
  GI50: 41.5 µM
  TGI: > 100 µM
T-47D breast
  GI50: 84 µM
  TGI: > 100 µM
TK-10 renal
  GI50: 22.3 µM
  TGI: > 100 µM
U251 CNS
  GI50: 3.85 µM
  TGI: 33 µM
UACC-257 melanoma
  GI50: > 100 µM
  TGI: > 100 µM
UACC-62 melanoma
  GI50: 3.93 µM
  TGI: 37.1 µM
